{"source": "patent US6395782B1", "about": "“Method of increasing longevity and preventing body weight wasting in autoimmune disease by using conjugated linoleic acid” (Wisconsin Alumni Research Foundation, priority 2001, dated 2002)", "key": {"[1]": {"test_system": "NZB/W F1 mice", "details": "dietary CLA fed from weaning onward; cited from earlier work"}, "[2]": {"test_system": "SLE patients and rodent models", "experiment": "Comparison of CLA with n-3 fatty acids in SLE patients and rodent models", "assay_type": "in vivo", "details": "CLA vs n-3 fatty acids", "excerpt": "Effects similar to those observed by the applicants can be observed using n-3 fatty acids in SLE patients and rodent models (Fernandes, G., et al., J. Immunol. 152:5979 (1994)). […] To have similar effects of 0.5% diet CLA, as described below, n-3 fatty acids would have to make up about 10% of the diet."}, "[3]": {"test_system": "NZB/W F1 mice", "experiment": "CLA diet given after onset of proteinuria in NZB/W F1 mice (SLE model): survival and body weight", "assay_type": "in vivo", "details": "p<0.05", "excerpt": "Materials. Conjugated linoleic acid (Natural Lipids Inc, Hovdebygda, Norway) contained 90% CLA (CLA-90) with the following C18:2 isomer distribution: 43.5% t10,c12, 41.9% c9,t11 and t9,c11, 1.5% t9,t11 and t10,t12, 0.9% c9,c11, 0.9% c10,c12. Other fatty acids in CLA-90 were 5.6% oleate, 1.4% palmitate, 0.5% linoleate, 0.4% stearate, and 3.4% unidentified compounds. All other chemicals and reagents were purchased from Sigma Chemical Co. (St. Louis, Mo.) unless specified.\nDiet. Semi-purified powdered diet (TD94060, 99% basal mix, Harlan-Teklad, Madison, Wis.) was mixed with 0.5% oil (either CLA or corn oil) and 0.5% sucrose by weight, such that the final diet contained either 5.5% corn oil (control group) or 5% corn oil plus 0.5% CLA (CLA group) (Park Y et al., Lipids 32, 853 (1997)). […]\nAnimals. […] Once proteinuria was detected the mice were assigned either the control diet or 0.5% conjugated linoleic acid for the remainder of their life. […]\nFeed Intake and Body Weight. Weekly body weight and survival of the mice were recorded from the beginning of the experiment to the time of death.\nUrine Collection and Proteinuria Assay. […] Plates were mildly shaken for 5 min and the color reactions were read at 600 nm with a microtiter plate reader (Autoreader EL310, Bio-tek Instrument). […]\nStatistical Analysis. […] Positive proteinuria ratio was analyzed by Fisher's exact test using a SAS computer program version 5."}}}
{"substance": "Conjugated linoleic acid [CLA]", "values": [{"measurement": "anti-DNA antibody production", "setting": "[1]", "result": "does not significantly affect"}, {"measurement": "body weight loss vs control mice", "setting": "[1]", "result": "lost less body weight"}, {"measurement": "onset of proteinuria", "setting": "[1]", "result": "accelerates the onset of proteinuria"}, {"measurement": "survival from the onset of proteinuria vs control mice", "setting": "[1]", "result": "lived longer"}, {"measurement": "total lifespan vs control animals", "setting": "[1]", "result": "did not differ"}, {"measurement": "effectiveness relative to n-3 fatty acids in comparable methods", "setting": "[2]", "result": "about 20 times"}, {"measurement": "prolonging of life span (lived longer than control diet)", "setting": "[3]; 0.5% CLA in diet from detection of proteinuria (1 mg protein/ml urine) until death, vs 5.5% corn oil control diet, female NZB/W F1 mice", "result": 55, "unit": "%"}, {"measurement": "reduction of body weight wasting (control lost more body weight than CLA diet)", "setting": "[3]; 0.5% CLA in diet from detection of proteinuria until death, vs control diet, NZB/W F1 mice", "result": 35, "unit": "%"}]}
